From publication PMC5418711, “Safety and efficacy of the choline analogue SAR97276 for malaria treatment: results of two phase 2, open-label, multicenter trials in African patients” (Malaria Journal, 2017)
Values joined by “and” are separate entries in the source; they are usually repeats but may differ in a detail not shown here. Equal entries are not always repeated.

System: P. falciparum
Assay: Study 2: phase 2 randomized controlled trial, efficacy in teenagers with uncomplicated falciparum malaria
Assay type: in vivo, Plasmodium falciparum
Conditions: for Median PRR (parasite reduction ratio: parasitemia at baseline/parasitemia at 72 h): N=8, at 72 h
Excerpt: The study was designed to enroll up to 180 participants. A randomized, controlled, age de-escalating trial design was applied in Study 2 to assess SAR97276A as a 3-day regimen administered IM to underage malaria patients. […] The study was planned to be conducted first in teenagers (age 12–17 years) and then in children (age 2–11 years).
Study 2 only enrolled uncomplicated malaria patients with P. falciparum ≥2000 parasites/µL. Two age groups were planned: Teenager aged 12–17 years and children aged 2–11 years. SAR97276A was planned to be administered only by IM injection.
Study duration and follow-up In both studies, study duration was 28 days for each patient including a screening period of up to 12 h before inclusion into the study. Participants were hospitalized for at least 3 days (72 h) after the start of treatment. Follow-up visits were done on day 6, 8, 14 ± 2, 21 ± 2, 28 ± 2 (Study 1); and day 7, 14 ± 2, 21 ± 2, 28 ± 2 (Study 2). Patient examination Fever measurements and thick blood smears were done every 6 h until 72 h and at each follow-up visit. Parasitemia was determined microscopically by Giemsa stained thick blood smear by two trained microscopists blinded to each other. […] Laboratory tests including hematology, biochemistry and urine analysis were done at baseline, day 2, 4, 28 (Study 1), or baseline, day 2, 4, 14, 28 (Study 2); vital signs were recorded at baseline, every 6 h until 72 h and on each follow up visit. An electrocardiogram (ECG) was done at baseline, day 4, 28 (Study 1), or baseline, 48 h, 72 h, day 28 (Study 2). For Study 2 respiratory parameters (respiratory rate, peak flow, efficiency of cough) were also checked at baseline and 30 min after first dose on day 1, 2 and 3.
Primary endpoint consisted of two criteria: (1) parasite clearance at 72 h analyzed by thick blood smear and (2) measurement of parasite reduction ratio (PRR: parasitemia at baseline/parasitemia at 72 h).
Sample size was calculated based on the parasite reduction ratio (PRR). Details are described in the supplementary information (see Additional file 4). PRR was calculated by: parasitemia at baseline/parasitemia at 72 h. For patients who prematurely discontinued study treatment the parasitemia at 72 h was replaced by last measurement of parasitemia or last measurement before rescue therapy for calculation of PRR at 72 h.
Parasite clearance time (PCT), PC50 and PC90 were calculated by Kaplan–Meier method. Interim analysis was to be performed following completion of each cohort.
Study 2: The patients were monitored up to day 28. […] The current available recommended rescue therapy as recommended by local guidelines was given. Treatment failures were described as early and late treatment failures.
Late treatment failure was defined as development of severe malaria after day 3 after first study drug administration in presence of parasitemia, and /or parasitemia on day 4 - 14 with axillary temperature ≥ 37.5°C, and /or any additional antimalarial therapy not specified in the study protocol.

[1] = Group 2A: 3 days IM once daily 0.5 mg/kg, N=8
[2] = Group 2B: 3 days IM twice daily 0.25 mg/kg, N=8

Cc1c(CCO)sc[n+]1CCCCCCCCCCCC[n+]1csc(CCO)c1C [SAR97276A]
Early treatment failures [1]: 4 | Late treatment failures [1]: 3 | Patients classified as treatment failures [1]: 7/8 | Patients who received rescue treatment during the trial [1]: 8/8 | Median PRR (parasite reduction ratio: parasitemia at baseline/parasitemia at 72 h) (Group 2A: 3 days IM once daily 0.5 mg/kg): 22.5 (0.4–6280.0) | Parasitemia between 6 and 12 h after the start of treatment (Group 2A: 3 days IM once daily 0.5 mg/kg, not seen in the other groups): Increase of parasitemia | Early treatment failures [2]: 4 | Late treatment failures [2]: 1 | Patients classified as treatment failures [2]: 5/8 | Patients who received rescue treatment during the trial (Group 2B: 3 days IM twice daily 0.25 mg/kg, N=8, 0.25 mg/kg): 5 out of 8 and 5/8 | Median PRR (parasite reduction ratio: parasitemia at baseline/parasitemia at 72 h) (Group 2B: 3 days IM twice daily 0.25 mg/kg): 12.0 (0.3–83.1)
